Results: PMC5736709, “Unravelling the specificity and mechanism of sialic acid recognition by the gut symbiont Ruminococcus gnavus” (Nature Communications, 2017)
“Also recorded” adds a separate entry of the source.

Experiments:
RgCBM40 Y210A = target: T1, RgCBM40 Y210A (Mediterraneibacter gnavus (Ruminococcus gnavus), UniProt A7B557, Y210A); experiment: ITC of sialoglycans binding to RgCBM40 mutant Y210A; design: species or system Ruminococcus gnavus ATCC 29149; details: for Kd: ITC
T1 sequence (A7B557 50-237 Y210A): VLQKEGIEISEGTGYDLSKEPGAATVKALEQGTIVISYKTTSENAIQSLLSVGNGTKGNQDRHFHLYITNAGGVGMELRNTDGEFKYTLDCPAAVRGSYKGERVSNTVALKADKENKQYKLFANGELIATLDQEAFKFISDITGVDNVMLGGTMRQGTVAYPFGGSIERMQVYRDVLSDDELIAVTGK
Experimental: (§1) Isothermal titration calorimetry (ITC) experiments were performed using the PEAQ-ITC system (Malvern, Malvern, UK) with a cell volume of 200 µl. Prior to titration protein samples were exhaustively dialysed into PBS. The ligand was dissolved in the dialysis buffer. The cell protein concentration was 115 µM (except for mutant I95A where it was 173 µM and the wild-type interaction with 6′SL where it was 230 µM) and the syringe ligand concentration was 10 mM (25 mM for Neu5Ac). Controls with titrant (sugar) injected into buffer only were subtracted from the data. Analysis was performed using Malvern software, using a single-binding site model. The stoichiometry of binding sites was set to 1.0 as this was evident from the crystal structure. Quantitative and most qualitative experiments were carried out in triplicate.

RgCBM40 R204A = target: T2, RgCBM40 R204A (Mediterraneibacter gnavus (Ruminococcus gnavus), UniProt A7B557, R204A); experiment: ITC of sialoglycans binding to RgCBM40 mutant R204A; design: species or system Ruminococcus gnavus ATCC 29149; details: for Kd: ITC
T2 sequence (A7B557 50-237 R204A): T1 sequence (A7B557 50-237 Y210A)
Experimental: (§2) Site directed mutagenesis of RgGH33 to introduce the D282A mutation in the active site was carried out using the QuikChange kit, following the manufacturer’s instructions, Agilent (Santa Clara, CA, USA). Site-directed mutants of RgCBM40; I95A, Y116A, E126A, R128A, R204A and double mutant R128A/R204A, were obtained from NZyTech (Lisbon, Portugal). The primers are listed in Supplementary Table 4. The integrity of the RgGH33 and RgCBM40 mutants was checked by circular dichroism (CD).
as §1

RgCBM40 = RgCBM40 (Mediterraneibacter gnavus (Ruminococcus gnavus), UniProt A7B557); experiment: STD NMR of sialoglycans with RgCBM40 WT; design: species or system Ruminococcus gnavus ATCC 29149; details: 1 mM sialoglycan, 50 μM RgCBM40 WT, 288 K; 'exception' = monosaccharides for which binding was not detected
Experimental: (§3) ^1H and ^13C resonance assignment for all the sugars was performed on the bases of 1D ^1H, 2D DQF-COSY, TOCSY, HSQC and NOESY experiments run on the free ligands in unbuffered D2O, pH 7.0. For STD NMR experiments, all the samples consisted of 1 mM sialoglycans and 50 μM RgCBM40 (WT or I95A mutant) in D2O buffer solution of 10 mM Tris-d11 pH 7.8 and 100 mM NaCl (ligand: protein ratio 20:1). An STD pulse sequence that included 2.5 ms and 5 ms trim pulses and a 3 ms spoil gradient was used. Saturation was achieved applying a train of 50 ms Gaussian pulses (0.40 mW) on the f2 channel, at 0.60 p.p.m. (on-resonance experiments) and 40 p.p.m. (off-resonance experiments). The broad protein signals were removed using a 40 ms spinlock (T1ρ) filter. All the experiments were recorded at ^1H frequency of 800.23 MHz on a Bruker Avance III spectrometer equipped with a 5 mm probe TXI 800 MHz H-C/N-D-05 Z BTO, at 288 K. For all the sialoglycans in the presence of RgCBM40, an STD experiment with a saturation time of 2 s and a relaxation delay of 5 s was performed, as a first test for binding. For the confirmed binders, the STD NMR experiments were carried out at different saturation times (0.5, 1, 2, 3, 4 and 5 s) with 1 K scans and relaxation delay of 5 s, in order to obtain the binding epitope mapping. The resulting build-up curves for each proton were fitted mathematically to a mono-exponential equation (y = a×[1-exp(b×x)]), from which the initial slopes (a×b) were obtained. For each ligand, the binding epitope mapping was obtained by dividing the initial slopes by the one of the H7 proton of the corresponding sialic acid ring, to which an arbitrary value of 100% was assigned. This normalisation of the STD values allows the comparison across all the sialoglycans.

RgCBM40 Y116A = target: T3, RgCBM40 Y116A (Mediterraneibacter gnavus (Ruminococcus gnavus), UniProt A7B557, Y116A); experiment: ITC of sialoglycans binding to RgCBM40 mutant Y116A; design: species or system Ruminococcus gnavus ATCC 29149; details: for Kd: ITC
T3 sequence (A7B557 50-237 Y116A): T1 sequence (A7B557 50-237 Y210A)
Experimental: as §2, §1

RgCBM40 I95A = target: T4, RgCBM40 I95A (Mediterraneibacter gnavus (Ruminococcus gnavus), UniProt A7B557, I95A); experiment: STD NMR of sialoglycans with RgCBM40 I95A mutant; type: binding, Ruminococcus gnavus ATCC 29149; details: 1 mM sialoglycan, 50 μM RgCBM40 I95A
T4 sequence (A7B557 50-237 I95A): T1 sequence (A7B557 50-237 Y210A)
Experimental: as §3, with “The resulting build-up curves for each proton were fitted mathematically to a mono-exponential equation (y = a×[1-exp(b×x)]), from which the initial slopes (a×b) were obtained. For each ligand, the binding epitope mapping was obtained by dividing the initial slopes by the one of the H7 proton of the corresponding sialic acid ring, to which an arbitrary value of 100% was assigned. This normalisation of the STD values allows the comparison across all the sialoglycans.” left out

RgCBM40 R128A/R204A = target: T5, RgCBM40 R128A/R204A (Mediterraneibacter gnavus (Ruminococcus gnavus), UniProt A7B557, R128A/R204A); experiment: ITC of sialoglycans binding to RgCBM40 double mutant R128A/R204A; design: species or system Ruminococcus gnavus ATCC 29149; details: for Kd: ITC
T5 sequence (A7B557 50-237 R128A/R204A): T1 sequence (A7B557 50-237 Y210A)
Experimental: as §2, §1

Structure (SMILES)	Binding by ITC (in words) (RgCBM40 Y210A)	Kd (RgCBM40 Y210A) [mM]	Binding by ITC (in words) (RgCBM40 R204A)	Kd (RgCBM40 R204A) [mM]	Binding to RgCBM40 detected by STD NMR (RgCBM40)	Binding by ITC (in words) (RgCBM40 Y116A)	Kd (RgCBM40 Y116A) [mM]	Binding to I95A by STD-NMR (RgCBM40 I95A)	Binding by ITC (in words) (RgCBM40 R128A/R204A)	Kd (RgCBM40 R128A/R204A) [mM]
CC(=O)N[C@H]1[C@H]([C@H](O)[C@H](O)CO)O[C@@](O[C@H]2[C@@H](O)[C@@H](CO)O[C@@H](O[C@H]3[C@H](O)[C@@H](O)C(O)O[C@@H]3CO)[C@@H]2O)(C(=O)O)C[C@@H]1O (stereo partly drawn) [3′SL, α2-3 sialyllactose]	abolished	> 25	abolished; also recorded: loss of binding	> 25	detected	abolished	> 25	confirmed	abolished; also recorded: loss of binding	> 25
CC(=O)N[C@H]1[C@H]([C@H](O)[C@H](O)CO)O[C@@](OC[C@H]2O[C@@H](O[C@H]3[C@H](O)[C@@H](O)C(O)O[C@@H]3CO)[C@H](O)[C@@H](O)[C@H]2O)(C(=O)O)C[C@@H]1O (stereo partly drawn) [6′SL, α2,6-sialyllactose]	abolished	> 25	abolished	> 25	detected	abolished	> 25	confirmed	abolished	> 25
